Data as given in the C3SDB collision cross section collection.

Legend:
[1] = [M+H]+; instrument: DT; stepped-field
[2] = instrument: TW, calibrated with phosphatidylcholines (ESI+) and phosphatidylethanolamines (ESI-)
[3] = instrument: DT, single field, calibrated with Agilent tune mix (Agilent)

Structure (SMILES) | collision cross section (N2) ([2]; [M+H]+) | collision cross section (N2) ([3]; [M+H]+) | collision cross section (N2) ([3]; [M+Na]+) | collision cross section (N2) ([2]; [M+Na]+) | collision cross section (N2) ([2]; [M-H]-) | collision cross section (N2) ([3]; [M-H]-) | also measured
CCCCCCCCCCCCCCCCCC(=O)O[C@H](CO)COP(=O)([O-])OCC[N+](C)(C)C [LPC(18:0)] | 235.7 Å² | 237.9 Å² | 240.8 Å² | – | – | – | collision cross section (N2) [1]: 240.7 Å²; collision cross section (N2) ([3]; [M+HCOO]-): 241.4 Å²
CCCCCCCCCCCCCCCCCC(=O)O[C@H](CO)COP(=O)(O)OCCN [LPE(18:0)] | 220.8 Å² | – | 227.5 Å² | 224.8 Å² | 212.9 Å² | 214.1 Å² | –
CCCCCCCC/C=C\CCCCCCCCCC(=O)O[C@H](COC(=O)CCCCCCCCCCCCC)COP(=O)(O)O [PA(34:1)] | – | 271 Å² | 268.5 Å² | – | 254.7 Å² | 255.6 Å² | collision cross section (N2) ([3]; [M+NH4]+): 271.2 Å²
CCCCC/C=C\C/C=C\CCCCCCCC(=O)O[C@H](COC(=O)CCCCCCCCCCCCCCC)COP(=O)(O)O [PA(34:2)] | – | 267.5 Å² | 266.5 Å² | – | 253.4 Å² | – | collision cross section (N2) ([3]; [M+NH4]+): 267.8 Å²
CC/C=C\C/C=C\C/C=C\C/C=C\CCCCC(=O)OC[C@H](COP(=O)(O)O)OC(=O)CCCCCCCCC/C=C\CCCCCCCC [PA(38:5)] | – | – | – | – | 261.6 Å² | – | collision cross section (N2) ([3]; [M+NH4]+): 277.2 Å²
CCCCCC/C=C\CCCCCCCCCCCC(=O)O[C@H](COC(=O)CCCCCCCCC/C=C\CCCCCC)COP(=O)([O-])OCC[N+](C)(C)C [PC(38:2)] | 293.7 Å² | 297 Å² | – | – | – | – | –
CCCCC/C=C\C/C=C\C/C=C\CCCCC(=O)OC[C@H](COP(=O)([O-])OCC[N+](C)(C)C)OC(=O)CCCCCCCCC/C=C\CCCCCCCC [PC(38:4)] | 291.2 Å² | – | 298.5 Å² | – | – | – | collision cross section (N2) ([2]; [M+CH3COO]-): 296.3 Å²; collision cross section (N2) ([3]; [M+HCOO]-): 294.4 Å²
CCCCC/C=C\C/C=C\C/C=C\C/C=C\CCCCCC(=O)O[C@H](COC(=O)CCCCCCC/C=C\C/C=C\CCCCC)COP(=O)([O-])OCC[N+](C)(C)C [PC(40:6)] | 293.3 Å² | 296.2 Å² | – | – | – | – | –
CCCC/C=C\C/C=C\CCCCCCCC(=O)OC[C@H](COP(=O)(O)OCCN)OC(=O)CCCCCCC/C=C\CCCCCCCCC [PE(36:3)] | 273.7 Å² | 274.9 Å² | 279.9 Å² | – | 266.7 Å² | 266.1 Å² | –
CCCCC/C=C\C/C=C\C/C=C\C/C=C\CCCCCC(=O)O[C@H](COC(=O)CCCCCC/C=C\C/C=C\C/C=C\CCCCC)COP(=O)(O)OCCN [PE(42:7)] | 291.7 Å² | – | – | – | – | – | –
CCCCC/C=C\C/C=C\CCCCCCCC(=O)O[C@H](CO/C=C\CCCCCCCCCCCCCC)COP(=O)(O)OCCN [PE(p34:2)] | 271.8 Å² | 270 Å² | – | – | – | 261.1 Å² | –
CC/C=C\C/C=C\C/C=C\C/C=C\CCCCC(=O)O[C@H](CO/C=C\CCCCCCCCCCCCCCCC)COP(=O)(O)OCCN [PE(p36:4)] | – | – | – | 275.5 Å² | 264.6 Å² | – | –
CCCCC/C=C\C/C=C\CCCCCCCCCCCC(=O)O[C@H](CO/C=C\CCCCCCCCCCCCCC)COP(=O)(O)OCCN [PE(p38:2)] | 284 Å² | – | – | – | 272.7 Å² | – | –
CC/C=C\C/C=C\C/C=C\C/C=C\C/C=C\CCCC(=O)O[C@H](CO/C=C\CCCCCCCCCCCCCCCC)COP(=O)(O)OCCN [PE(p38:5)] | 278.3 Å² | 280.2 Å² | – | 279.4 Å² | 268.7 Å² | 270.6 Å² | –
CCCCC/C=C\C/C=C\CCCCCCCCCC(=O)O[C@H](CO/C=C\CCCCCCCCCCCCCCCCCC)COP(=O)(O)OCCN [PE(p40:2)] | 290 Å² | – | – | 291.1 Å² | – | – | –
CCCCC/C=C\C/C=C\C/C=C\CCCCCCC(=O)O[C@H](CO/C=C\CCCCCCCCCCCCCCCCCC)COP(=O)(O)OCCN [PE(p40:3)] | 287.9 Å² | – | – | – | – | 277.1 Å² | –
CC/C=C\C/C=C\C/C=C\C/C=C\C/C=C\C/C=C\CCC(=O)O[C@H](CO/C=C\CCCCCCCCCCCCCCCC)COP(=O)(O)OCCN [PE(p40:6)] | 283.5 Å² | – | – | 286.8 Å² | 274.4 Å² | – | –
CC/C=C\C/C=C\C/C=C\C/C=C\C/C=C\C/C=C\CCC(=O)O[C@H](CO/C=C\CCCCCC/C=C\CCCCCCCC)COP(=O)(O)OCCN [PE(p40:7)] | 283 Å² | – | – | 281 Å² | – | – | –

Structure (SMILES) | collision cross section (N2) ([2]; [M+H]+) | collision cross section (N2) ([3]; [M+H]+) | collision cross section (N2) ([3]; [M+Na]+) | collision cross section (N2) ([2]; [M+Na]+) | collision cross section (N2) ([2]; [M-H]-) | collision cross section (N2) ([3]; [M-H]-) | also measured
CCCC/C=C\CCCCCCCC(=O)OC[C@H](COP(=O)(O)OC[C@@H](O)CO)OC(=O)CCCCCCCCC/C=C\C/C=C\CCCCC [PG(34:3)] | – | – | – | 275.1 Å² | – | 266.2 Å² | –
CCCCC/C=C\C/C=C\C/C=C\C/C=C\CCCC(=O)OC[C@H](COP(=O)(O)OC[C@@H](O)CO)OC(=O)CCCCCCC/C=C\CCCCCC [PG(36:5)] | – | – | – | 277.8 Å² | – | – | –
CC/C=C\C/C=C\C/C=C\C/C=C\CCCCC(=O)OC[C@H](COP(=O)(O)OC[C@@H](O)CO)OC(=O)CCCCCCCCC/C=C\CCCCCCCC [PG(38:5)] | – | 292.1 Å² | 288.8 Å² | 285.9 Å² | 276.5 Å² | – | –
CC/C=C\C/C=C\C/C=C\C/C=C\C/C=C\C/C=C\CCC(=O)O[C@H](COC(=O)CCCCCCCCCCCCCCC)COP(=O)(O)OC[C@@H](O)CO [PG(38:6)] | – | 289.3 Å² | 286 Å² | 284 Å² | 275.6 Å² | – | collision cross section (N2) ([3]; [M+NH4]+): 290.2 Å²
CCCCC/C=C\C/C=C\C/C=C\CCCCCCC(=O)OC[C@H](COP(=O)(O)OC[C@@H](O)CO)OC(=O)CCCCCCCCC/C=C\CCCCCCCC [PG(40:4)] | – | – | – | – | 283.7 Å² | – | –
CCCCC/C=C\C/C=C\C/C=C\C/C=C\CCCCCC(=O)OC[C@H](COP(=O)(O)OC[C@@H](O)CO)OC(=O)CCCCCCC/C=C\CCCCCCCC [PG(40:5)] | – | – | 295.2 Å² | 292.7 Å² | 283 Å² | 283.4 Å² | collision cross section (N2) ([3]; [M+NH4]+): 298.9 Å²
CCCCCCCCCC/C=C\CCCCCCCCCC(=O)O[C@H](COC(=O)CCCCCCCCCCC)COP(=O)(O)O[C@H]1C(O)C(O)C(O)[C@@H](O)C1O (some centres undefined) [PI(34:1)] | – | 294.9 Å² | 292.4 Å² | – | 283.7 Å² | 283.7 Å² | collision cross section (N2) ([3]; [M+NH4]+): 295.8 Å²
CCCCC/C=C\C/C=C\CCCCCCCCCCCC(=O)O[C@H](COC(=O)CCCCCCCCCCC)COP(=O)(O)O[C@H]1C(O)C(O)C(O)[C@@H](O)C1O (some centres undefined) [PI(34:2)] | – | 291.6 Å² | – | – | 282.4 Å² | 282.4 Å² | collision cross section (N2) ([3]; [M+NH4]+): 292.9 Å²
CCCCCCCCCCCCCCCCCCC(=O)OC[C@H](COP(=O)(O)O[C@H]1C(O)C(O)C(O)[C@@H](O)C1O)OC(=O)CCCCCCCCCCCCCCCC (some centres undefined) [PI(36:0)] | – | – | – | 298.6 Å² | – | – | –
CCCCC/C=C\C/C=C\CCCCCCCCCCCC(=O)O[C@H](COC(=O)CCCCCCC/C=C\C/C=C\CCCCC)COP(=O)(O)O[C@H]1C(O)C(O)C(O)[C@@H](O)C1O (some centres undefined) [PI(40:4)] | – | – | 307.1 Å² | – | 297.1 Å² | 298.2 Å² | –
CCCCC/C=C\C/C=C\C/C=C\C/C=C\CCCC(=O)O[C@H](COC(=O)CCCCCC/C=C\C/C=C\C/C=C\CCCCC)COP(=O)(O)O[C@H]1C(O)C(O)C(O)[C@@H](O)C1O (some centres undefined) [PI(40:7)] | – | – | – | 298.8 Å² | – | – | –
CC/C=C\C/C=C\C/C=C\C/C=C\CCCCC(=O)OC[C@H](COP(=O)(O)O[C@H]1C(O)C(O)C(O)[C@@H](O)C1O)OC(=O)CCCCC/C=C\C/C=C\C/C=C\C/C=C\CCCCC (some centres undefined) [PI(40:8)] | – | – | – | 296.8 Å² | – | – | –
CCCCCCCC/C=C\CCCCCCCC(=O)OC[C@H](COP(=O)(O)O[C@H]1C(O)C(O)C(O)[C@@H](OP(=O)(O)O)C1O)OC(=O)CCCCCCCCCCCCCCCCC (some centres undefined) [PIP(36:1)] | – | – | – | – | – | – | collision cross section (N2) ([2]; [M+H-H2O]+): 296.4 Å²
CCCCC/C=C\C/C=C\CCCCCCCC(=O)O[C@H](COC(=O)CCCCCCC/C=C\CCCCCCCC)COP(=O)(O)O[C@H]1C(O)C(O)C(O)[C@@H](OP(=O)(O)O)C1O (some centres undefined) [PIP(36:3)] | – | – | – | – | – | – | collision cross section (N2) ([2]; [M+H-H2O]+): 292.7 Å²
CCCCC/C=C\C/C=C\C/C=C\C/C=C\CCCC(=O)O[C@H](COC(=O)CCCCCCCCCCCCCCCCC)COP(=O)(O)O[C@H]1C(O)C(O)C(O)[C@@H](OP(=O)(O)O)C1O (some centres undefined) [PIP(38:4)] | – | – | – | – | – | – | collision cross section (N2) ([2]; [M+H-H2O]+): 300.5 Å²
CCCCCCCCCCCCC=CC[C@@H](O)[C@H](COP(=O)([O-])OCC[N+](C)(C)C)NC(=O)CC=CCCCCCCCCCCCCCC [SM(d18:1/18:1)] | 283.2 Å² | – | – | – | – | – | –
CCCCCCCCCCCCC=CC[C@@H](O)[C@H](COP(=O)([O-])OCC[N+](C)(C)C)NC(=O)CCCCCCCCCCCCCCCCCCCCC [SM(d18:1/22:0)] | 297.1 Å² | – | – | – | – | – | –
